We go through two molecules from US9220264B2, “Multimeric forms of antimicrobial peptides” (Singapore Health Services Pte Ltd., priority 2008, dated 2015).

One may read the MIC as the least concentration at which growth counts as inhibited. A higher MIC goes with a less susceptible organism.

In data set [1] the test system is human conjunctival epithelial cells. The format is cell-based. On the procedure: The results are from four independent experiments and data points show the mean and standard deviations. The X axis indicates the peptide concentration in μg/ml and the Y axis indicates the % cell viability. The cytotoxicity of V2 dimer were tested against human conjunctival cells according to the method described in WO 2007/126392 and compared with native hBD3. […] Wildtype hBD3 was cytotoxic at concentrations of about 15 μg/ml, however, the V2 dimer was not cytotoxic at concentrations of 100 μg/ml.

Data set [2] concerns Bacillus cereus ATCC 11778. The data set is classed as cell-based. The method, then:
(§1) MICs was determined by broth macrodilution method modified from that described by the National Committee for Clinical Laboratory Standards (NCCL). The Mueller Hinton Broth (MHB) at ⅙ strength and without addition of Ca^2+ and Mg^2+ was used for dilution. Serial twofold dilutions of V2 dimer solution was prepared in MHB (⅙ strength) in test tubes. 1 ml of inoculum of test organisms in MHB (⅙ strength) was added to 1 ml of each dilution of V2 dimer to yield as final concentration of 10^4 to 10^5 colony forming units/ml in each test tube. The tubes were incubated at 35° C. for 16 to 20 hours. A positive control containing only the broth and organism, and a negative control tube containing only the broth were also incubated in parallel to the test samples. The above was repeated for each different test organism in separate experiments. The MIC of V2 dimer peptide for each clinical isolate or reference organism was read as the lowest concentration of peptide that inhibited visible growth of the test organism.
(§2) The MIC was also determined for other peptides and compared to gentamicin.

Data set [3] has as its system Candida albicans ATCC10231. The data set is classed as cell-based. On the procedure: as §1, §2
Data set [4] concerns Clinical Escherichia coli DB16027 Source: Blood. The data set is classed as cell-based. To be noted: Clinical DB16027 Source: Blood. The method, then:
as §1, §2

Data set [5] deals with Clinical Escherichia coli DU46381R Source: Urine. The data set is classed as cell-based. On the procedure: as §1, §2
Data set [6] deals with Clinical Pseudomonas aeruginosa 07DM 023257 Source: Eye. The format is cell-based. To be noted: Clinical 07DM 023257 Source: Eye. On the procedure:
as §1, §2

Data set [7] deals with Clinical Pseudomonas aeruginosa 07DM023376 Source: Eye. The format is cell-based. The note with it: Clinical 07DM023376 Source: Eye. On the procedure: as §1, §2
Data set [8] concerns Clinical Pseudomonas aeruginosa DM 023104 Source: Eye. The format is cell-based. The note with it: Clinical DM 023104 Source: Eye. On the procedure: as §1, §2
The test system of data set [9] is Clinical Pseudomonas aeruginosa DM 023155 Source: Eye. The data set is classed as cell-based. The note with it: Clinical DM 023155 Source: Eye. The method, then: as §1, §2
In data set [10] the test system is Clinical Pseudomonas aeruginosa PAE 230 DR4877/07 Source: Sputum. The data set is classed as cell-based. To be noted: Clinical PAE 230 DR4877/07 Source: Sputum. The method, then:
as §1, §2

The test system of data set [11] is Clinical Pseudomonas aeruginosa PAE 239 DM5790/07 Source: Wound. The data set is classed as cell-based. To be noted: Clinical PAE 239 DM5790/07 Source: Wound. On the procedure:
as §1, §2

The subject of data set [12] is Clinical Pseudomonas aeruginosa PAE 240 DU14476/07 Source: Urine. The data set is classed as cell-based. To be noted: Clinical PAE 240 DU14476/07 Source: Urine. On the procedure: as §1, §2
Data set [13] deals with Clinical Pseudomonas aeruginosa PAE 249 DM15013 Source: Wound. The format is cell-based. The note with it: Clinical PAE 249 DM15013 Source: Wound. On the procedure:
as §1, §2

In data set [14] the test system is Clinical Staphylococcus aureus DM4001 Source: Eye. The format is cell-based. The method, then: as §1, §2
Data set [15] relates to Escherichia coli ATCC25922. The format is cell-based. The method, then:
as §1, §2

Data set [16] relates to Fusarium solani ATCC 36031. The format is cell-based. The method, then: as §1, §2
Data set [17] deals with Methicillin-resistant staphylococcus aureus (MRSA) DM09808R Source: Eye. The data set is classed as cell-based. The note with it: Methicillin-resistant DM09808R Source: Eye. The method, then: as §1, §2
Data set [18] concerns Pseudomonas aeruginosa ATCC 27853. The format is cell-based. The method, then: as §1, §2
Data set [19] concerns Clinical Cadida albicans DF2672R Source: Urine. The format is cell-based, Candida albicans. The method, then: as §1, §2
In data set [20] the test system is Kp ATCC 10031. The data set is classed as cell-based, Klebsiella pneumoniae. To be noted: ATCC 10031, 24 h. The method, then:
The minimum inhibitory concentration (MIC) was determined using a broth microdilution method. Different strains of bacterial cells were grown in Mueller Hinton Broth (MHB) overnight. 100 μl of adjusted inoculum in MHB was added to 100 μl of each dilution of peptide or antibiotics dissolved in the broth, so as to yield a final cell density of 10^5 to 10^6 cfu/ml in each well of a microtitre plate. Additional microtitre plates may be used as necessary, if more wells are required for the assay or duplicate plates are required. The microtitre plates were incubated at 35° C. for 24 h and the absorbance at 600 nm (OD600) was monitored every 30 minutes. […] A positive control well contained the broth and organisms (no peptides/antibiotics), and a negative control well contains only the broth. The MIC of peptides for each clinical isolate or reference organism was recorded as the lowest concentration of peptide/antibiotic that inhibited visible growth of the test organism. […]

For data set [21], the system named is LPS. The experiment in a line: Competitive inhibition assay: effect of exogenous LPS on inhibitory activity. The format is cell-based. The note with it: peptide at 1×MIC in MHB; compared to B2088; FIG. 10(C). On the procedure:
Effect of LPS and Mg^2+ on MIC: To examine the interaction of peptide and LPS, the concentration of the latter was added exogenously from (0.001-100 mg/ml) in MHB at a peptide concentration of 1×MIC. The % inhibition was estimated and the amount of LPS required for 50% of antibacterial activity (IC50) was determined.

The subject of data set [22] is PA 28753. The experiment in a line: Bacterial viability assay (ED50). The format is cell-based, Pseudomonas aeruginosa. To be noted: 10 mM phosphate buffer; 37° C.; 22 h; read-out: ED50 (Effective dose to kill 50% of bacterial cells). On the procedure:
(§3) Cell viability was conducted for two Gram-negative bacteria (Pa 9027 and Pa 27853). The cultures were grown overnight on trypticase soy (TS) agar and a few isolated colonies were inoculated to achieve a turbidity equivalent to 0.5 McFarland standard. The cell concentration was adjusted to 10^6 CFU/ml with 10 mM phosphate buffer and separated into different tubes to get final concentration of 10^5 CFU/ml. The peptides were added to the individual tubes to obtain concentrations of ⅛ MIC, ¼ MIC, ½ MIC, 1 MIC, 2 MIC and 4 MIC. The tubes were incubated at 37° C. for 22 h. Serial dilution was performed and 100 μL of the suspension was aliquot onto Mueller Hinton Agar (MHA) plate. The plates were incubated for 24 h at 37° C. for colony counting. Positive control was performed at Oh and 22h.

Data set [23] relates to PA 9027. The data set is described as follows: Bacterial viability assay (ED50). The format is cell-based, Pseudomonas aeruginosa. The method, then:
as §3

Data set [24] relates to P. aeruginosa. The data set is described as follows: Time-kill kinetics assay. The note with it: both Pseudomonas strains; 1× and 2×MIC; USP phosphate buffer pH 7.2; 35° C.; FIG. 12. The data set is classed as cell-based, Pseudomonas aeruginosa. The method, then: The kinetics of bactericidal action was performed by the assay reported before. Briefly, few colonies of overnight grown P. aeruginosa strains were collected from tryptic soy agar plate and suspended in US pharmacopeia phosphate buffer (pH 7.2). The suspension was adjusted to an initial inoculum of 10^6 CFU/mL and incubated with various concentrations of B2088 and B2088—99 at 35° C. 0.1 ml aliquots were withdrawn at various time intervals, diluted 10^2-10^4 fold using the same buffer, plated on tryptic soy agar plates and incubated at 35° C. The colonies were counted after 24 h incubation and expressed as CFU/ml. Buffer without peptides served as a positive control and % bacterial viability is estimated using the following equation: Bacterial viability=1−(CFU/mL)peptide/(CFU/mL)control*100

Data set [25] has as its system P. aeruginosa ATCC 9027. The experiment in a line: Outer membrane (OM) permeability assay (NPN uptake). The note with it: 5 mM HEPES buffer pH 7.2; 10 μM NPN; FIG. 13. The data set is classed as cell-based, Pseudomonas aeruginosa. On the procedure: The membrane impermeable probe N-phenyl-1-naphthyl amine (NPN) was used to probe the OM permeability of peptides. An overnight culture of P. aeruginosa ATCC 9027 was harvested by centrifugation (3000 rpm, 4° C.). The pellet was washed 2 times and resuspended in 5 mM HEPES buffer (pH 7.2) to OD600 of 0.4. The cells were placed in a 10 mm stirred cuvette and NPN was added to a final concentration of 10 μM. Appropriate concentrations of B2088 was added and the increase in fluorescence intensity was monitored on a Quanta Master fluorescence spectrophotometer (Photon Technology International, New Jersey, USA). The excitation and emission wavelengths were set at 350 and 410 nm with slid widths at 2 and 5 nm, respectively. The % NPN uptake was calculated relative to the increase in NPN fluorescence intensity after the addition of 50 μM polymyxin B.
The peptide concentration required to cause 50% increase in the NPN fluorescence intensity (PC50) was measured.

Molecules are shown by their SMILES. In brackets after ≈: the same amount, converted by molar mass. Bridge positions count the residues as written; N and C are the ends. Peptide text beside a SMILES is read from it. I, II: the chains in the order shown.

With `CC(C)[C@H](NC(=O)[C@H](CCCCN)NC(=O)[C@H](CCCNC(=N)N)NC(=O)CNC(=O)[C@@H](N)CCCNC(=N)N)C(=O)N[C@H](C(=O)N[C@@H](CCCNC(=N)N)C(=O)N[C@@H](CCCNC(=N)N)C(=O)NCCCC[C@H](NC(=O)[C@H](CCCNC(=N)N)NC(=O)[C@H](CCCNC(=N)N)NC(=O)[C@@H](NC(=O)[C@@H](NC(=O)[C@H](CCCCN)NC(=O)[C@H](CCCNC(=N)N)NC(=O)CNC(=O)[C@@H](N)CCCNC(=N)N)C(C)C)C(C)C)C(=O)N[C@@H](CCCCN)C(=O)O)C(C)C` [V2 dimer, (SEQ ID NO: 44)2KK] (I: H-RGRKVVRRKK-OH / II: H-RGRKVVRR; amide I:9-II:C), in [1], the “cytotoxicity in comparison with native hBD3” value is recorded as “does not show cytotoxicity”. The MIC in [2] turned out to be 12.5 µg/mL (≈ 5.46 µM); in [3], 12.5 µg/mL (≈ 5.46 µM); in [4], 6.25 µg/mL (≈ 2.73 µM); in data set [5], 6.25 µg/mL (≈ 2.73 µM); in [6], 12.5 µg/mL (≈ 5.46 µM); in [7] it was 12.5 µg/mL (≈ 5.46 µM). The MIC in data set [8] amounted to 12.5 µg/mL (≈ 5.46 µM); in [9], 12.5 µg/mL (≈ 5.46 µM); in [10], 12.5 µg/mL (≈ 5.46 µM); in data set [11] it was 12.5 µg/mL (≈ 5.46 µM); in [12], 6.25 µg/mL (≈ 2.73 µM); in data set [13], 6.25 µg/mL (≈ 2.73 µM). Moreover, the MIC was 12.5 µg/mL (≈ 5.46 µM) in [14]; 12.5 µg/mL (≈ 5.46 µM) in [15]; 25 µg/mL (≈ 10.9 µM) in [16]; 12.5 µg/mL (≈ 5.46 µM) in data set [17]; 12.5 µg/mL (≈ 5.46 µM) in [18]; 12.5 µg/mL (≈ 5.46 µM) in [19]. The “Minimum inhibitory concentration (MIC)” value in [20] amounted to 1.4 µM (≈ 3.21 µg/mL).

For `N=C(N)NCCC[C@H](NC(=O)CNC(=O)CNC(=O)[C@H](CCCCN)NC(=O)[C@H](CCCNC(=N)N)NC(=O)CNC(=O)[C@@H](N)CCCNC(=N)N)C(=O)N[C@@H](CCCNC(=N)N)C(=O)NCCCC[C@H](NC(=O)[C@H](CCCNC(=N)N)NC(=O)[C@H](CCCNC(=N)N)NC(=O)CNC(=O)CNC(=O)[C@H](CCCCN)NC(=O)[C@H](CCCNC(=N)N)NC(=O)CNC(=O)[C@@H](N)CCCNC(=N)N)C(=O)N[C@@H](CCCCN)C(=O)O` [B2088_99, (RGRKGGRR)2KK] (I: H-RGRKGGRRKK-OH / II: H-RGRKGGRR; amide I:9-II:C; N-terminus assumed), the “Minimum inhibitory concentration (MIC)” value in data set [20] was determined as 1.5 µM (≈ 3.18 µg/mL). The “concentration of LPS to suppress the inhibitory activity” value in data set [21] is “higher concentration of LPS”. For the same molecule, the EC50 in [22] was 480 ± 30 nM; in data set [23] (10 mM phosphate buffer, 37° C., 22 h, read-out: ED50 (Effective dose to kill 50% of bacterial cells)), 330 ± 50 nM. In data set [23] (Pa 9027 and Pa 27853, Table 22 and FIG. 11), the “ED50 compared with B2088” value is recorded as “two times lower”. In addition, the kill kinetics entry in [24] is “faster kill kinetics”. Further, in data set [25], the “PC50 (peptide concentration to cause 50% increase in NPN fluorescence intensity)” value is reported as “higher than B2088”.
